This is an account of results in patent publication US20240391900A1, “RIP1 KINASE INHIBITOR AND USE THEREOF” (SIRONAX (BEIJING) CO., LTD., priority 2021, published 2024).

For data set [1], the system named is HT-29 human colon cancer cells. Briefly: In vitro biological activity assay: inhibition of TNFα/SmacM/Z_VAD FMK-induced programmed necrosis, CellTiter-Glo viability. It is filed as cell-based. To be noted: HT-29 cells, necrosis induced with TNF-α 100 ng/mL, SmacM 100 nM, Z_VAD-FMK 10 μM, overnight, cell viability by chemiluminescence. As to the method: In order to verify the inhibitory effect of the compounds of the present disclosure on programmed necrosis at the cellular level, a type of cells closely related to the RIP1 pathway, namely HT-29 human colon cancer cells, were selected. The used activation mode is a combination of tumor necrosis factor (TNFα), cysteine aspartate activator mimic (SmacM) and pan-caspase inhibitor Z_VAD FMK, and the cell viability was calculated by detecting chemiluminescence values, thus obtaining the biological activity of the compound inhibiting the programmed necrosis of cells.
Cell line: HT-29 (ATCC® HTB-38™)
• 2.1. The Growth Status of HT-29 Cells was Regularly Checked to Ensure their Normal Growth. • 2.2. McCOY's 5A culture medium containing 10% FBS was preheated in a 37° C. water bath for 30 minutes. When the culture medium was ready for use, the cell passage and inoculation was performed in a Class II safety cabinet with aseptic technique. • 2.3. In a T75 culture flask, when the growth density of cells reached the abundance of approximately 80%, the culture medium was aspirated and cells were washed twice with pre-warmed PBS. • 2.4. 2-3 mL of trypsin (Gibco, catalog number 25200-056) was added and the T75 culture flask was transferred to a 37° C. incubator. • 2.5. After 3-5 minutes, the side of the culture flask was tapped and examined under a microscope for detachment of the cells to the flask. If necessary, the cells were placed back into the incubator to wait for another 5-10 minutes until 85% of the cells were detached from each other. • 2.6. 6-9 mL of complete cell culture medium was quickly added to terminate the trypsin reaction, and then the cells were transferred to a sterile 15 mL centrifuge tube. The cells were pelleted by centrifugation at 300 g for 5-7 minutes in a centrifuge, and then the supernatant was decanted. • 2.7. The cells were resuspended in 10 mL of fresh cell culture medium and the cells were counted by using a hemocytometer. • 2.8. 3,000 cells contained in 100 μL were inoculated into each well of a sterile 96-well cell culture plate (Corning 3903) and cultured overnight at 37° C. under 5% CO2.
• 3.1. All batches of compounds were dissolved in dimethyl sulfoxide (DMSO) to prepare a 20 mM stock. • 3.2. 3 μL of 20 mM stock of each compound was added to 27 μL of DMSO and mixed thoroughly, and then diluted at a dilution ratio of […] (20 μL compound+40 μL DMSO) until the 10-12 points ended. After the compounds were diluted, they were set aside for use. • 3.3. The cell culture plate was taken out from the incubator, washed once with PBS, and replaced with a fresh culture medium free of serum. A mixture of TNF-α (100 ng/mL), SMAC mimic (SmacM, 100 nM) and Z_VAD-FMK (10 μM) was added to induce the programmed necrosis in HT-29 cells. • 3.4. The compound dilution plate was prepared, 0.5 μL of the diluted compound was added to the corresponding 96-well plate, and mixed gently. Two duplicate wells were prepared for each compound. • 3.5. The treated 96-well plate to which the compounds had been added was placed back into the 37° C. incubator containing 5% CO2 and incubated overnight.
The luminescence cell viability detection kit was used to calculate the activity of the compound by measuring the ATP content in viable cells. • 4.1. The CellTiter-Glo® buffer and dry powdered substrate were equilibrated to room temperature before use. • 4.2. The CellTiter-Glo® substrate was resuspended with Cell Titer-Glo® buffer, then homogeneously mixed by gently vortexing. • 4.3. The cell culture plate was taken out and equilibrated at room temperature for 10 minutes (usually not suitable if more than 30 minutes). • 4.4. 20 μL of enzyme/substrate mixture was added into the 96-well assay plate with a multi-channel pipettor. • 4.5. The 96-well assay plate was placed on a shaker and the content was mixed for 2-3 minutes to promote the cell lysis. • 4.6. […]

Data set [2] in a line: Rapid brain distribution assay (LC-MS/MS, brain tissue/plasma ratio). It is filed as in vivo. To be noted: mouse, ip, CD1 mice, intraperitoneal, grouped compounds, brain tissue and plasma taken one hour after administration, read-out: B/P. As to the method: The contents in plasma and tissue samples were measured by LC-MS/MS to obtain the ratio of the concentration in the brain tissue sample to that in the plasma sample, and compounds with blood-brain penetration could be quickly screened.
• 3.1. A group of compounds (usually 3-4 compounds, the molecular weight difference between each other was greater than 5), weighing 1-2 mg of each compound, were added into the same 4 mL weighing bottle. • 3.2. A mixed solvent of 10% DMSO+20% polyethylene glycol-15-hydroxystearate+70% H2O was used to prepare each group to a volume of 1.5 mL-2 mL. • 3.3. The mixture was ultrasonically vortexed until a homogeneous solution was obtained for intraperitioneal administration.
• 4.1. Three CD1 mice were prepared for each group and weighed. • 4.2. The administration volume was 10 mL/kg, and the mice were administered intraperitoneally. • 4.3. Timing was started after administration, and plasma samples and brain tissue samples were taken one hour later. • 4.4. The brain tissue sample was weighed, and then 4 fold volume of physiological saline was added. The resulting mixture was homogenized, and frozen at −20° C. until analysis.
• 5.1. The exact molecular weight of a compound was found from the compound information table. • 5.2. The corresponding parent ions and fragment ions were found, and the mass spectrometry condition and the liquid phase (chromatography) method were optimized to find the appropriate condition and method.
• 6.1. Plasma sample (5-fold dilution): 10 μL of the plasma sample was taken, and 40 μL of the blank plasma sample and 50 μL of the corresponding blank tissue sample were added. • 6.2 Tissue sample processing: 50 μL of the tissue sample (brain, kidney, liver and the like) was taken, and 50 μL of the blank plasma sample was added. • 6.3. The above tissue sample and the diluted plasma sample were taken, and 500 μL of the internal standard solution was added to precipitate the protein. The resulting mixture was vortexed for 2 minutes, stored by freezing at −20° C. for 1 hour and centrifuged at 3800 rpm for 15 minutes at 4° C. The supernatant was taken, 5-fold diluted with 50% MeOH, and then vortexed for 2 minutes, ready for measurement.
The sample was detected by using an appropriate LC-MS/MS method.
Distribution ratio of tissue/plasma=(peak area of compound in tissue/peak area of internal standard)/(peak area of compound in plasma/peak area of internal standard)

For a further data set, the system named is mouse L929 cells. To be noted: read-out: IC50, blocking programmed necrosis; cited from earlier work.
The next data set deals with TNF-induced shock model. To be noted: mice; cited from earlier work.
A further data set deals with human U937 cells. To be noted: read-out: IC50, blocking programmed necrosis; cited from earlier work.
The conditions of data set [3]: in vivo; cited from earlier work.

Turning to `C(#Cc1cnc2cccnn12)c1cccc(-n2cc3c(n2)C(c2ccccc2)CC3)n1` (stereo not shown) [Compound 1, 3-((6-(6-phenyl-5,6-dihydrocyclopenta[c]pyrazol-2 (4H)-yl)pyridin-2-yl)ethynyl)imidazo[1,2-b]pyridazine], the EC50 in data set [1] was no more than 100 nM. Also, the Kp at 1 h in data set [2] was 0.735.

For `Nc1ncc(C#Cc2cncc(-n3cc4c(n3)C(c3ccccc3)OC4)c2)cn1` (stereo not shown) [Compound 51, 5-(5-(6-phenyl-4H-furo[3,4-c]pyrazol-2 (6H)-yl)pyridin-3-ethynyl)pyrimidin-2-amine], the EC50 in data set [1] was no more than 100 nM. The Kp at 1 h in data set [2] came to 2.46.

`Cc1ncc(C#Cc2cnc(N)nc2)cc1-n1cc2c(n1)C(c1ccccc1)CC2` (stereo not shown) [Compound 42, 5-((6-methyl-5-(6-phenyl-5,6-dihydrocyclopenta[c]pyrazol-2 (4H)-yl)pyridin-3-yl)ethynyl)pyrimidin-2-amine]: the EC50 in data set [1] is no more than 100 nM. Further, the Kp at 1 h in data set [2] amounted to 2.45.

For the compound `Cc1ncc(C#Cc2cnc(N)nc2)cc1-n1nc2c(n1)C(c1ccccc1)CC2` (stereo not shown) [Compound 58, 5-((6-methyl-5-(4-phenyl-5,6-dihydrocyclopenta[d][1,2,3]triazol-2 (4H)-yl)pyridin-3-yl)ethynyl)pyrimidin-2-amine], the EC50 in data set [1] was no more than 100 nM. In data set [2], the Kp at 1 h came to 2.93.

With `C(#Cc1cncc(-n2cc3c(n2)C(c2ccccc2)CC3)c1)c1ccccc1` (stereo not shown) [Compound 30, 6-phenyl-2-(5-(phenylethynyl)pyridin-3-yl)-2,4,5,6-tetrahydrocyclopenta[c]pyrazole], in data set [1], the EC50 was greater than 1000 nM. In addition, in data set [2], the Kp at 1 h was 0.429.

On to `Nc1ncc(C#Cc2cccc(-n3cc4c(n3)C(c3ccccc3)CC4)c2)cn1` (stereo not shown) [Compound 36, 5-((3-(6-phenyl-5,6-dihydrocyclopenta[c]pyrazol-2 (4H)-yl)phenyl)ethynyl)pyrimidin-2-amine], for which the half-maximal effective concentration (EC50) in data set [1] was no more than 100 nM. Further, the Kp at 1 h in data set [2] was 3.62.

`Cn1cc(C#Cc2cnc(N)nc2)cc(-n2cc3c(n2)C(c2ccccc2)CC3)c1=O` (stereo not shown) [Compound 44]: in data set [1], the EC50 is no more than 100 nM. The Kp at 1 h in data set [2] is 3.25.

As for `Nc1ncc(C#CC2CCC(n3cc4c(n3)C(c3ccccc3)CC4)C2)cn1` (stereo not shown) [Compound 3, 5-((3-(6-phenyl-5,6-dihydrocyclopenta[c]pyrazol-2 (4H)-yl)cyclopentyl)ethynyl)pyrimidin-2-amine], the EC50 in data set [1] is no more than 100 nM. Further, the Kp at 1 h in data set [2] came to 3.96.

In the case of `Nc1ncc(C#Cc2cncc(-n3nc4c(n3)C(c3cc(F)cc(F)c3)CC4)c2)cn1` (stereo not shown) [Compound 63, 5-((5-(4-(3,5-difluorophenyl)-5,6-dihydrocyclopenta[d][1,2,3]triazol-2 (4H)-yl)pyridin-3-yl)ethynyl)pyrimidin-2-amine], in data set [1], the EC50 is no more than 100 nM. Besides, in data set [2], the Kp at 1 h was 3.77.

Turning to `Nc1ncc(C#Cc2cncc(-n3nc4c(c3Cl)CCC4c3ccccc3)c2)cn1` (stereo not shown) [Compound 39], in data set [1], the EC50 is no more than 100 nM. In addition, the Kp at 1 h in data set [2] is 2.07.

Regarding `CC(C)(C)C(=O)N1N=CC[C@H]1c1ccccc1` [GSK′963], the IC50 is 1 nM in the data set on mouse L929 cells and 4 nM with human U937 cells. Also, in the data set on TNF-induced shock model, the effect on hypothermia entry is listed as “effectively inhibit hypothermia”.

On to `Nc1ncc(C#Cc2cncc(-n3nc4n(c3=O)CCC4c3ccccc3)c2)cn1` (stereo not shown) [Compound 52, 2-(5-((2-aminopyrimidin-5-yl)ethynyl)pyridin-3-yl)-7-phenyl-2,5,6,7-tetrahydro-3H-pyrrolo[2,1-c][1,2,4]triazole-3-one], for which the EC50 in data set [1] is no more than 100 nM. The Kp at 1 h in data set [2] was 1.1.

Regarding `Nc1ncc(C#Cc2cncc(-n3nc4c(n3)[C@H](c3ccccc3)CC4)c2)cn1` [Compound 55, (S)-5-((5-(4-phenyl-5,6-dihydrocyclopenta[d][1,2,3]triazol-2 (4H)-yl)pyridin-3-yl)ethynyl)pyrimidin-2-amine], the EC50 in data set [1] is no more than 100 nM. For the same compound, the Kp at 1 h in data set [2] was determined as 2.61.

As to `Cc1c2c(nn1-c1cncc(C#Cc3cnc(N)nc3)c1)C(c1ccccc1)CC2` (stereo not shown) [Compound 40], in data set [1], the EC50 was no more than 100 nM. In data set [2], the Kp at 1 h was determined as 1.61.

For `CN1C(=O)[C@@H](NC(=O)c2nnc(Cc3ccccc3)[nH]2)COc2ccccc21` [GSK2982772], the brain tissue distribution entry in data set [3] is “low brain tissue distribution”.

For `COc1ccc(C#Cc2cccc(-n3cc4c(n3)C(c3ccccc3)CC4)c2)cn1` (stereo not shown) [Compound 33, 2-(3-((6-methoxypyridin-3-yl)ethynyl)phenyl)-6-phenyl-2,4,5,6-tetrahydrocyclopenta[c]pyrazole], the EC50 in data set [1] was no more than 100 nM. The Kp at 1 h in data set [2] was found to be 0.563.

Take `C(#Cc1cnc2cccnn12)c1ccnc(-n2cc3c(n2)C(c2ccccc2)CC3)n1` (stereo not shown) [Compound 7, 3-((2-(6-phenyl-5,6-dihydrocyclopenta[c]pyrazol-2 (4H)-yl)pyrimidine-4-yl)ethynyl)imidazo[1,2-b]pyridazine]: in data set [1], the EC50 fell in the range of 100 to 1000 nM. Further, the Kp at 1 h in data set [2] was 0.12.

As to `Nc1ncc(CCc2cncc(-n3cc4c(n3)[C@H](c3ccccc3)CC4)c2)cn1` [Compound 61, (S)-5-(2-(5-(6-phenyl-5,6-dihydrocyclopenta[c]pyrazol-2 (4H)-yl)pyridin-3-yl)ethyl)pyrimidin-2-amine], the EC50 in data set [1] was no more than 100 nM. For the same compound, in data set [2], the Kp at 1 h stood at 1.17.

Take `Cn1c(-n2nc3c(n2)C(c2cccnc2)CC3)cc(C#Cc2cnc(N)nc2)cc1=O` (stereo not shown) [Compound 62]: the EC50 in data set [1] was no more than 100 nM. Also, in data set [2], the Kp at 1 h was 0.388.

For `Nc1ncc(C#Cc2cncc(-n3cc4c(n3)C(c3ccccc3)CC4)c2)cn1` (stereo not shown) [Compound 38], the EC50 in data set [1] was no more than 100 nM. Also, the Kp at 1 h in data set [2] is 2.46.
